Reference: PMC5456363 (PLoS ONE, 2017)
“And” between values parts separate entries of the source, which are not always exact repeats. Identical values can stand only once. “Also recorded” adds a separate entry of the source. Values belong to the molecule of their own block, whether it stands above or below them. Non-standard residues stand in square brackets, D forms with d. Residues, ends and D or L forms follow the SMILES beside them. No end group written: not given here. *: point of attachment. Orn(α-tetramethylguanidino) = CN(C)C(=N[C@@H](CCCN)C(=O)*)N(C)C; Orn = NCCC[C@H](N)C(=O)O

Assays:
[1] = Peptide stability in fresh blood taken by cardiac puncture into a syringe containing the peptide (blood, B); assay type: in vitro ADME, CD-1 mice; settings: blood, 37°C, 1 h, 31.5 μmol/L; for remaining at 1 h: CD-1, mouse, fresh whole blood, read-out: intact peptide remaining relative to time zero
Procedure: (§1) All stability tests were performed at least in triplicates.

[2] = Peptide stability in direct serum (DS); assay type: in vitro ADME, CD-1 mice; settings: 37°C, 1 h, 31.5 μmol/L; for remaining at 1 h, 31.5 μmol/L: CD-1, mouse, direct serum (supernatant of blood centrifuged immediately), read-out: intact peptide remaining relative to time zero
Procedure: as §1

[3] = Peptide stability in activated serum (AS); assay type: in vitro ADME, CD-1 mice; settings: 37°C, 1 h, 31.5 μmol/L; for remaining at 1 h, 31.5 μmol/L: CD-1, mouse, read-out: intact peptide remaining relative to time zero
Procedure: as §1

[4] = Peptide stability in commercial serum (CS); assay type: in vitro ADME, mouse; settings: commercial mouse serum, 37°C, 1 h, 31.5 μmol/L; for remaining at 1 h, 31.5 μmol/L: commercial pooled serum, read-out: intact peptide remaining relative to time zero
Procedure: as §1

[5] = Peptide stability in heparin plasma (HP); assay type: in vitro ADME, CD-1 mouse; settings: 37°C, 1 h, 31.5 μmol/L
Procedure: as §1

[6] = Peptide stability in EDTA plasma (EP); assay type: in vitro ADME, CD-1 mouse; settings: 37°C, 1 h, 31.5 μmol/L
Procedure: as §1

[7] = cited from earlier work
[8] = Stability and metabolites across fresh blood, serum and plasma (all six matrices); settings: for Overall stability / Sequential stability: fresh blood, serum, and plasma
Procedure: Aqueous peptide solutions (3 g/L) were filled in a sterile syringe (1 mL, Dispomed Witt oHG, Gelnhausen, Deutschland) through the front end, the stainless-steel needle was attached, and blood (200 to 300 μL) was collected via cardiac puncture to obtain a peptide concentration of approximately 31,5 μmol/L. The syringe was carefully disconnected from the needle and sealed while keeping the needle in the heart. A second empty syringe was attached to the needle and 0.5 to 0.8 mL blood were collected. In parallel, the sealed syringe was gently shaken for one minute to mix the peptide solution with blood and further incubated on a Stuart Rotator SB3 (Barloworld, Scientific LTD, Stone, Staffordshire, U.K.) placed in an incubator at 37°C. […] The plasma sample designated as “blood” (B) was precipitated with trichloroacetic acid (TCA), as described below. Blood collected in the second syringe was transferred to a polypropylene tube (Eppendorf AG, Hamburg, Germany) and a BD Microtainer® serum separator tube (SST; Becton, Dickinson and Company). Polypropylene tubes were centrifuged immediately (12,000 x g, 2 to 4 min) to obtain “direct serum” (DS) as supernatant, whereas the serum separator tubes were incubated (room temperature, 1 h), centrifuged (12,000 x g, 2 min), and collected as “activated serum” (AS). Pooled mouse serum was purchased from PAA Laboratories GmbH (Pasching, Austria) and pooled CD-1 mouse plasma containing K2EDTA or lithium heparin were obtained from Innovative Research (Novi, MI, USA).
Peptides were mixed with serum or plasma to a final concentration of 31.5 μmol/L and incubated (37°C, 750 rpm; Thermomixer, Eppendorf AG, Hamburg, Germany). Aliquots (20 or 40 μL) taken after 0 and 60 min (0, 10 and 30 min for Api88) were mixed with TCA to obtain a final concentration of 3% (w/v) and incubated on ice (10 min). After centrifugation (12,000 x g, 5 min), the supernatant was neutralized with sodium hydroxide (1 mol/L) and stored at −20°C. Samples were analyzed by RP-HPLC on a Jupiter C18-column (internal diameter: 2 mm, length: 150 mm, particle size: 5 μm, pore size: 30 nm) using a linear aqueous acetonitrile gradient containing TFA (0.1%, v/v) as ion pair reagent. Peptides were detected by recording the absorbance at 214 nm and quantified by their peak areas relative to the initial peak areas (0 min). All stability tests were performed at least in triplicates.
Metabolites were identified on an Agilent 1100 LC system (Agilent Technologies, Santa Clara, CA, USA) coupled on-line via a UV-detector (absorbance recorded at 214 nm) to the electrospray ionization source on an ion trap mass spectrometer (ESI-IT-MS, Esquire HCT, Bruker Daltonics GmbH, Bremen, Germany). Samples were separated on an Aqua C18-column (inner diameter: 2 mm, length: 150 mm, particle size: 3 μm, pore size: 12.5 nm, Phenomenex; column temperature: 60°C) at a flow rate of 0.2 mL/min using a linear gradient of aqueous acetonitrile in the presence of formic acid (FA; 0.1%, v/v) as ion pair reagent. […] The ESI-IT-MS was operated in positive ion mode. Ionization was carried out at 365°C (source temperature) using nitrogen as curtain gas (40 psi) and dry gas (9 L/min). Mass spectra were acquired for an m/z range from 400 to 1300 at a scan rate of 8100 m/z-units per second in standard enhanced mode.

[9] = “direct serum” (DS): blood in polypropylene tubes centrifuged immediately; settings: CD-1 mice, 37°C, up to 60 min
[10] = “activated serum” (AS): serum separator tubes incubated (room temperature, 1 h), centrifuged; settings: CD-1 mice, 37°C, up to 60 min
[11] = blood collected via cardiac puncture into a syringe containing the peptide solution (“blood”, B); settings: CD-1 mice, 37°C, up to 60 min
[12] = Pooled mouse serum (PAA Laboratories), commercial serum (CS); settings: 37°C, up to 60 min
[13] = pooled CD-1 mouse plasma containing K2EDTA (EDTA plasma, EP); settings: 37°C, up to 60 min
[14] = pooled CD-1 mouse plasma containing lithium heparin (heparin plasma, HP); settings: 37°C, up to 60 min
human α-thrombin = assay: human α-thrombin; settings: up to 24 hours

intact peptide remaining relative to time zero [1]: ≥ 94%
intact peptide remaining relative to time zero [2]: ≥ 94%
intact peptide remaining relative to time zero [3]: ≥ 94%
remaining at 1 h, 31.5 μmol/L [4]: 78 ± 2%
intact peptide remaining relative to time zero [5]: ≥ 94%
intact peptide remaining relative to time zero [6]: ≥ 94%
Overall stability [8]: High
Sequential stability [8]: Blood = Plasma = Serum
Molecule: CC[C@H](C)[C@H](NC(=O)[C@H](Cc1ccc(O)cc1)NC(=O)[C@@H](NC(=O)[C@@H]1CCCN1C(=O)[C@H](CCCNC(=N)N)NC(=O)[C@H](CC(N)=O)NC(=O)[C@H](CC(N)=O)NC(=O)[C@H](CCCN)N=C(N(C)C)N(C)C)C(C)C)C(=O)N1CCC[C@H]1C(=O)N[C@@H](CCCNC(=N)N)C(=O)N1CCC[C@H]1C(=O)N[C@@H](CCCNC(=N)N)C(=O)N1CCC[C@H]1C(=O)N1CCC[C@H]1C(=O)N[C@@H](Cc1c[nH]cn1)C(=O)N1CCC[C@H]1C(=O)N[C@@H](CCCN)C(=O)N[C@@H](CC(C)C)C(N)=O [Api134, gu-ONNRPVYIPRPRPPHPOL-NH2] ({Orn(α-tetramethylguanidino)}-NNRPVYIPRPRPPHP[Orn]L-NH2)
half-life time in mouse serum ([7]; in vitro, mouse serum): 4 h

remaining at 1 h [1]: 103 ± 11%
remaining at 1 h, 31.5 μmol/L [2]: 94 ± 8%
remaining at 1 h, 31.5 μmol/L [3]: 80 ± 12%
remaining at 1 h, 31.5 μmol/L [4]: 64 ± 2%
remaining at 1 h, 31.5 μmol/L ([5]; CD-1, mouse, pooled plasma containing lithium heparin, read-out: intact peptide remaining relative to time zero): 62 ± 8%
remaining at 1 h, 31.5 μmol/L ([6]; CD-1, mouse, pooled plasma containing K2EDTA, read-out: intact peptide remaining relative to time zero): 47 ± 3%
Overall stability [8]: Medium
Sequential stability [8]: Blood = Serum > Plasma
Molecule: CC[C@H](C)[C@H](NC(=O)[C@H](CCCN)NC(=O)[C@H](CCCNC(=N)N)NC(=O)[C@@H]1CCCN1C(=O)[C@@H]1CCCN1C(=O)[C@H](CCCNC(=N)N)NC(=O)[C@@H]1CCCN1C(=O)[C@H](CCCNC(=N)N)NC(=O)[C@@H]1CCCN1C(=O)[C@H](CC(C)C)NC(=O)[C@H](Cc1ccc(O)cc1)NC(=O)[C@@H]1CCCN1C(=O)[C@@H]1CCCN1C(=O)[C@H](CCCCN)NC(=O)[C@H](CC(=O)O)NC(=O)[C@@H](N)C(C)C)C(=O)N[C@@H](Cc1ccc(O)cc1)C(=O)N[C@@H](CC(N)=O)C(=O)N[C@@H](CCCN)C(N)=O [Onc72, VDKPPYLPRPRPPROIYNO-NH2] (H-VDKPPYLPRPRPPR[Orn]IYN[Orn]-NH2)
serum half-life time ([7]; mouse serum): 3 h
peptide remaining in serum after one hour, previous study ([7]; serum, 1 h): 80%

Molecule: DTEDKGEFLSEGGGVR
fragment found [9]: FPA(2–16); TEDKGEFLSEGGGVR; also recorded: FPA(3–16); EDKGEFLSEGGGVR
fragment found [10]: FPA(2–16); TEDKGEFLSEGGGVR; also recorded: FPA(3–16); EDKGEFLSEGGGVR
fragment found [11]: FPA(2–16); TEDKGEFLSEGGGVR, one hour; also recorded: FPA(3–16); EDKGEFLSEGGGVR, one hour

cleaved bond [13]: Arg14-Arg15, major
fragment found [13]: Onc18(1–15); VDKPPYLPRPRPPRR-OH
cleaved bond [14]: Arg14-Arg15, major
fragment found [14]: Onc18(2–14); DKPPYLPRPRPPR-OH
cleaved bond [9]: Arg14-Arg15, major
fragment found [9]: Onc18(1–18); VDKPPYLPRPRPPRRIYN-OH
cleaved bond [10]: Arg14-Arg15, major
fragment found [10]: Onc18(1–18); VDKPPYLPRPRPPRRIYN-OH
cleaved bond [11]: Arg14-Arg15, major
fragment found [11]: Onc18(1–18); VDKPPYLPRPRPPRRIYN-OH
Molecule: H-VDKPPYLPRPRPPRRIYNR-NH2
cleaved bond [12]: Arg14-Arg15, major; also recorded: Asn18-Arg19, major

remaining at 1 h [1]: 42 ± 12%
remaining at 1 h, 31.5 μmol/L [2]: 72 ± 4%
remaining at 1 h, 31.5 μmol/L [3]: 53 ± 4%
intact peptide remaining relative to time zero [4]: less than 13%
remaining at 1 h, 31.5 μmol/L [4]: 12 ± 1%
intact peptide remaining relative to time zero [5]: less than 13%
intact peptide remaining relative to time zero [6]: less than 13%
Overall stability [8]: Medium
Sequential stability [8]: Blood = Serum > Plasma
Molecule: H-VDKPPYLPRPRPPRRIYNR-NH2 [Onc18, VDKPPYLPRPRPPRRIYNR-NH2]
serum half-life time ([7]; mouse serum): 0.333 h and 0.417 h
fraction of peptide remaining in serum after 1 h, reported ([7]; serum, 1 h): around a quarter

Molecule: VDKPPYLPRPRPPROIYNO-NH2 (H-VDKPPYLPRPRPPR[Orn]IYN[Orn]-NH2)
cleaved bond [12]: Arg14-Orn15, major; also recorded: Asn18-Orn19, major; also recorded: Orn15-Ile16
cleaved bond [13]: Arg14-Orn15, major; also recorded: Asn18-Orn19, major; also recorded: Orn15-Ile16
cleaved bond [14]: Arg14-Orn15, major; also recorded: Asn18-Orn19, major; also recorded: Orn15-Ile16
cleaved bond [9]: Arg14-Orn15, major; also recorded: Asn18-Orn19, major
cleaved bond [10]: Arg14-Orn15, major; also recorded: Asn18-Orn19, major
cleaved bond [11]: Arg14-Orn15, major; also recorded: Asn18-Orn19, major

Molecule: VDKPPYLPRPRPPRRIYN-OH [Onc18(1–18)]
Matrix in which the metabolite was identified ([8]; LC-MS, peak area at least 1% of initially incubated peptide, B blood, DS direct serum, AS activated serum, CS commercial serum, EP EDTA plasma, HP heparin plasma, All = all six): B, DS, AS, CS

not cleaved [12]: less than 2% being degraded after 1 hour
not cleaved [13]: at least 96% remaining after 1 hour
not cleaved [14]: at least 96% remaining after 1 hour
not cleaved [9]: at least 96% remaining after 1 hour
not cleaved [10]: at least 96% remaining after 1 hour
not cleaved [11]: at least 96% remaining after 1 hour
Molecule: VDKPPYLPRPRPPRrIYNr-NH2 (H-VDKPPYLPRPRPPR[dR]IYN[dR]-NH2)

not cleaved [13]: ≥94% intact peptide (one hour)
fragment found [14]: Api134(7–18), minor
not cleaved [11]: ≥94% intact peptide (one hour)
Molecule: gu-ONNRPVYIPRPRPPHPOL-NH2 ({Orn(α-tetramethylguanidino)}-NNRPVYIPRPRPPHP[Orn]L-NH2)
fragment found [12]: Api134(1–17); also recorded: Api134 (1–16); also recorded: Api134(7–18); YIPRPRPPHPOL-NH2, major; also recorded: Api134 (8–18); IPRPRPPHPOL-NH2, major
fragment found [10]: Api134(1–17), minor; also recorded: Api134(1–15), minor; also recorded: Api134(7–18), minor

Molecule: gu-ONNRPVYIPRPRPPHPRL-NH2 ({Orn(α-tetramethylguanidino)}-NNRPVYIPRPRPPHPRL-NH2; SMILES CC[C@H](C)[C@H](NC(=O)[C@H](Cc1ccc(O)cc1)NC(=O)[C@@H](NC(=O)[C@@H]1CCCN1C(=O)[C@H](CCCNC(=N)N)NC(=O)[C@H](CC(N)=O)NC(=O)[C@H](CC(N)=O)NC(=O)[C@H](CCCN)N=C(N(C)C)N(C)C)C(C)C)C(=O)N1CCC[C@H]1C(=O)N[C@@H](CCCNC(=N)N)C(=O)N1CCC[C@H]1C(=O)N[C@@H](CCCNC(=N)N)C(=O)N1CCC[C@H]1C(=O)N1CCC[C@H]1C(=O)N[C@@H](Cc1c[nH]cn1)C(=O)N1CCC[C@H]1C(=O)N[C@@H](CCCNC(=N)N)C(=O)N[C@@H](CC(C)C)C(N)=O)
cleaved bond (human α-thrombin): R17-L18, one hour
cleaved bond [12]: Arg17-Leu18, major
fragment found [12]: Api88(1–16); gu-ONNRPVYIPRPRPPHP-OH
cleaved bond [13]: Arg17-Leu18, major
cleaved bond [14]: Arg17-Leu18, major
cleaved bond [9]: Arg17-Leu18, major
fragment found [9]: Api88(1–16)
cleaved bond [10]: Arg17-Leu18, major
fragment found [10]: Api88(1–16)
cleaved bond [11]: Arg17-Leu18, major
fragment found [11]: Api88(1–16)

fragment found (human α-thrombin): Api137(1–17), minor, 24 h
not cleaved [13]: ≥94% (one hour)
Molecule: gu-ONNRPVYIPRPRPPHPRL-OH ({Orn(α-tetramethylguanidino)}-NNRPVYIPRPRPPHPRL-OH)
fragment found [12]: Api137(1–17); gu-ONNRPVYIPRPRPPHPR-OH; also recorded: Api137(1–16); gu-ONNRPVYIPRPRPPHP-OH; also recorded: Api137(1–15)
fragment found [14]: Api137(1–17); also recorded: Api137(1–16); also recorded: Api137(1–15); also recorded: Api137(7–18)
fragment found [9]: Api137(1–17); gu-ONNRPVYIPRPRPPHPR-OH; also recorded: Api137(1–16); also recorded: Api137(1–15)
fragment found [10]: Api137(1–17); also recorded: Api137(1–16); also recorded: Api137(1–15)
fragment found [11]: Api137(1–17); gu-ONNRPVYIPRPRPPHPR-OH; also recorded: Api137(1–16); also recorded: Api137(1–15); also recorded: Api137(7–18)
